According to patent US7947703B2, “Phenanthridinium derivatives as DNA binding agents” (University Court of the University of Glasgow, priority 2003, dated 2011):
“Also recorded” adds a separate entry of the source. Marks after values point to notes of the source that are not given here.

Legend:
[1] = tested on: human ovarian tumour cell line A2780; assay: growth (tetrazolium dye-based microtitration) cytotoxicity assay, A2780; format: cell-based; conditions: for IC50: cisplatin-sensitive line, 24 hours drug exposure, 3 day recovery, mean±SEM of triplicate plates; for cytotoxicity (in words): overall statement across A2780, A2780/cp70 and MCP1
Procedure: (§1) Compounds were tested in a growth assay with a 24 hours drug exposure and a 3 day recovery period. Cell lines used were human ovarian tumour cell line A2780 and 2 Cisplatin resistant derivatives cell lines A27080/cp70 and MCP1. IC50 is the concentration of drug required to reduce the surviving cell number to 50% of that of the control untreated cells. Results are from one experiment and are the mean±SEM of the triplicate plates.
(§2) DIP cytotoxicity was determined by a tetrazolium dye-based microtitration assay. DNA affinity measurements of DIPs were undertaken using Isothermal Titration Calorimetry (ITC).

[2] = tested on: Cisplatin resistant cell line A2780/cp70; assay: growth (tetrazolium dye-based microtitration) cytotoxicity assay, A2780/cp70; format: cell-based, human; conditions: for IC50: cisplatin-resistant line, 24 hours drug exposure, 3 day recovery, mean±SEM of triplicate plates; for RF1: rapport of the IC50 between A2780 and A2780/cp70, the lower RF the better
Procedure: as §1, §2

[3] = tested on: Cisplatin resistant cell line MCP1; assay: growth (tetrazolium dye-based microtitration) cytotoxicity assay, MCP1; format: cell-based, human; conditions: for IC50: cisplatin-resistant line, 24 hours drug exposure, 3 day recovery, mean±SEM of triplicate plates; for RF2: rapport of the IC50 between A2780 and MCP1, the lower RF the better
Procedure: as §1, §2

[4] = tested on: Salmon DNA; assay: DNA affinity by Isothermal Titration Calorimetry (ITC), Salmon DNA; format: binding; design: key to Ka Salmon DNA: *^1: No measurable binding via ITC; conditions: for DNA affinity (in words): DNA source not given
Procedure: as §2

[5] = tested on: Calf DNA; assay: DNA affinity by Isothermal Titration Calorimetry (ITC), Calf DNA; format: binding; design: key: *^1: No measurable binding via ITC
Procedure: as §2

[6] = tested on: DNA; assay: Viscosimetry analysis (DNA intercalation); conditions: preliminary result

| SMILES | IC50 ([1]; Homo sapiens, A2780) [nM] | IC50 ([2]; Homo sapiens, A2780/CP70) [nM] | RF1 [2] | IC50 ([3]; Homo sapiens) [nM] | RF2 [3] | Ka Salmon DNA [4] | Ka Calf DNA [5] | further results |
| --- | --- | --- | --- | --- | --- | --- | --- | --- |
| [Br-].c1ccc2c(c1)c[n+](CCN1CCCCC1)c1ccccc21 |  |  |  |  |  |  |  | melting point: 167 to 168 °C |
| [Br-].[Br-].c1ccc2c(c1)c[n+](CCN1CCN(CC[n+]3cc4ccccc4c4ccccc43)CC1)c1ccccc21 |  |  |  |  |  |  |  | melting point: 260 to 261 °C |
| COc1ccc(CSCC[n+]2cc3ccccc3c3ccccc32)cc1.[Br-] |  |  |  |  |  |  |  | melting point: 182 to 183 °C |
| CC(C)N1CC[n+]2c1c1ccccc1c1ccccc12.[Br-] |  |  |  |  |  |  |  | melting point: 250 to 251 °C (dec.) |
| COc1ccc(N2CC[n+]3c2c2ccccc2c2ccccc23)cc1.[Br-] [AP3-83] | 1450 ± 150 | 1100 ± 130 | 0.8 | 500 ± 40 | 0.3 | 3.73 ± 1827 M^−1 (10^4) | 3.46 ± 1726 M^−1 (10^4) |  |
| COc1ccc(CN2CC[n+]3c2ccc2ccccc23)cc1 [AP4-44, 3-(4-Methoxy-benzyl)-2,3-dihydro-1H-imidazo[1,2-a]quinolin-10-ylium bromide] | 30900 ± 2500 | 12600 ± 600 | 0.4 | 11000 ± 1000 | 0.4 | *^1 | *^1 | cytotoxicity (in words) [1]: much less cytotoxicity; DNA affinity (in words) [4]: cancel any measurable DNA affinity |
| c1ccc2c(c1)c1[n+](c3ccccc23)CCN1 [AP5-94, 2,3-Dihydro-1H-imidazo[1,2-f]phenanthridin-4-ylium bromide] | 1560 ± 180 | 2300 ± 150 | 1.5 | 820 ± 90 | 0.5 | 2.56 ± 802.6 M^−1 (10^4) | 2.06 ± 907 M^−1 (10^4) | cytotoxicity on cisplatin-sensitive cell line A2780 (in words) [1]: high cytotoxicity; less active on A2780/cp70 than on A2780 [2]: 50%; more active on MCP1 than A2780 [3]: 50%; viscosity of DNA (in words) [6]: increase of viscosity similar to the one obtained with the DNA intercalator reference ethidium bromide |
| OCCN1CC[n+]2c1c1ccccc1c1ccccc12.[Br-] [AP6-5] | 11700 ± 1200 | 13700 ± 1500 | 1.2 | 7800 ± 1470 | 0.7 | 1.84 ± 660 M^−1 (10^4) | 1.53 ± 838.9 M^−1 (10^4) |  |
| COc1ccc([C@@H](C)N2CC[n+]3c2c2ccccc2c2ccccc23)cc1 [AP6-96, 1-[1-(4-Methoxy-phenyl)-ethyl]-2,3-dihydro-1H-imidazo[1,2-f]phenanthridin-4-ylium bromide] | 1030 ± 60 | 1150 ± 70 | 1.1 | 530 ± 40 | 0.5 | 5.17 ± 1948 M^−1 (10^4) | 4.14 ± 2685 M^−1 (10^4) |  |
| COC(=O)[C@H](Cc1ccccc1)N1CC[n+]2c1c1ccccc1c1ccccc12.[Br-] [AP8-56] | 35800 ± 4200 | 21600 ± 1800 |  | 20000 ± 1200 |  | *^1 | *^1 | cytotoxicity on cisplatin-sensitive cell line A2780 (in words) [1]: moderate cytotoxicity; cytotoxicity (in words) [1]: moderate activity; DNA affinity (in words) [4]: does not have any measurable binding property |
| CCCN1CC[n+]2c1c1ccccc1c1ccccc12 [AP10-22, 1-Propyl-2,3-dihydro-1H-imidazo[1,2-f]phenanthridin-4-ylium bromide] | 6710 ± 860 | 5110 ± 190 | 0.8 | 2860 ± 320 | 0.4 | 3.11 ± 2203 M^−1 (10^4) | 3.67 ± 1310 M^−1 (10^4) | cytotoxicity (in words) [1]: the least active of all the alkyl DIP derivatives |
| COc1ccc2c(c[n+](C)c3c4cc5c(cc4ccc23)OCO5)c1OC.[Cl-] [Chelerythrine, reference compound] | 4630 ± 520 | 1790 ± 20 | 0.4 | 2290 ± 150 | 0.5 |  |  |  |
| N.N.[Cl][Pt][Cl] [Cisplatin, reference compound] |  |  | 5.8 |  | 1.7 |  |  | IC50 [1]: 250 ± 20 nM; IC50 [2]: 1460 ± 40 nM; IC50 [3]: 430 ± 60 nM |
| CC[n+]1c(-c2ccccc2)c2cc(N)ccc2c2ccc(N)cc21.[Br-] [EtBr, ethidium bromide, reference compound] | 300 ± 39 | 658 ± 118 | 2.2 | 450 ± 8 | 1.5 | 12.9 ± 4533 M^−1 (10^4) | 9.31 ± 3353 M^−1 (10^4) |  |
| COC(=O)CN1CC[n+]2c1c1ccccc1c1ccccc12.[Br-] [LS1-8] | 48400 ± 8500 | 54900 ± 3400 | 1.1 | 33000 ± 1600 | 0.7 |  |  | cytotoxicity (in words) [1]: moderate activity |
| C[C@H](CO)N1CC[n+]2c1c1ccccc1c1ccccc12.[Br-] [LS1-52] | 2860 ± 370 | 8430 ± 370 | 3 | 4770 ± 90 | 1.7 | 1.73 ± 989.3 M^−1 (10^4) | 1.42 ± 785 M^−1 (10^4) |  |
| COc1ccc(CN2CC[n+]3c2c2ccccc2c2cc(Br)ccc23)cc1.[Br-] [LS1-72] | 823 ± 219 | 1670 ± 180 | 2 | 997 ± 34 | 1.2 |  |  |  |
| [Br-].[Br-].c1ccc2c(c1)c1[n+](c3ccccc23)CCN1CCNCCN1CC[n+]2c1c1ccccc1c1ccccc12 [LS1-81] | 32400 ± 2000 | 15100 ± 900 | 0.5 | 25400 ± 2900 | 0.8 |  |  |  |
| COC(=O)[C@@H](Cc1ccccc1)N1CC[n+]2c1c1ccccc1c1ccccc12.[Br-] [LS2-6] | 31200 ± 4200 | 26400 ± 3300 | 0.9 | 34200 ± 4300 | 1.1 |  |  | cytotoxicity on cisplatin-sensitive cell line A2780 (in words) [1]: moderate cytotoxicity; cytotoxicity (in words) [1]: moderate activity; also recorded: moderate cytotoxicity in the three lines |
| [Br-].c1ccc(C(CCN2CC[n+]3c2c2ccccc2c2ccccc23)c2ccccc2)cc1 [LS2-10] | 2060 ± 340 | 1730 ± 120 | 0.8 | 2030 ± 310 | 1 |  |  |  |
| CCc1ccc(N2CC[n+]3c2c2ccccc2c2ccccc23)cc1.[Br-] [LS2-11] | 1540 ± 120 | 1250 ± 140 | 0.8 | 1110 ± 160 | 0.7 |  |  |  |
